Test system: Spodoptera frugiperda
Assay: Antifeedant activity against final instar larvae of Spodoptera frugiperda assessed as antifeedant index at 1000 ppm
Type: functional

C/C=C(\C)C(=O)O[C@@H]1[C@H]2C(=O)[C@](C)([C@H]3CC[C@]4(C)[C@@H](CC(=O)O[C@H]4c4ccco4)[C@]34O[C@H]24)[C@@H]([C@@H](OC(C)=O)C(=O)OC)C1(C)C [swietemahonin F]
Activity: 70.2%

From ChEMBL document CHEMBL1144137, “Limonoids from Swietenia macrophylla and S. aubrevilleana” (1999)
